Measurements taken from patent US6150335A, “Tic-containing opioid dipeptide derivatives useful as analgesics” (Astra AB, priority 1996, dated 2000).

Legend:
[1] = target: T1, μ opioid receptor (Rattus norvegicus, UniProt P33535); assay: μ opioid receptor binding assay, displacement of [3H]DAMGO from rat brain membranes; conditions: [3H]DAMGO 0.7 nM, Cheng-Prusoff
T1 construct: Male Sprague-Dawley rats (300-350 g) from the Canadian Breeding Laboratories were decapitated and after removal of the cerebellum the brains were homogenized; from tissue; host or cells: rat brain (without cerebellum) membranes, male Sprague-Dawley
Procedure: (§1) μ and δ opioid receptor binding constants (Ki^μ,Ki^δ) of the compounds were determrined by displacement of relatively selective μ and δ radioligands from binding sites in rat brain membrane preparations calculated from the measured IC50 values on the basis of the equation by Cheng and Prusoff, (Y. C. Cheng and W. H. Prusoff Biochem. Pharmnacol. 22, 3099-3102 (1973)).
(§2) The μ-, δ- and κ-opioid receptor affinities of all new analogs were determined in binding assays based on displacement of μ-, δ- and κ-selective radioligands from rat brain membrane binding sites. In the case of κ-ligands guinea pig brain homogenates were used, since the relative proportion of κ-binding sites is higher in guinea pig brain than in rat brain. The experimental procedure being used in our laboratory represents a modified version of the binding assay described by Pasternak et al. (Mol. Pharnacol. 11, 340-351 (1975)). Male Sprague-Dawley rats (300-350 g) from the Canadian Breeding Laboratories were decapitated and after removal of the cerebellum the brains were homogenized in 30 volumes of ice-cold standard buffer (50 mnM Tris HCl , pH 7.7). After centrifugation at 30,000×g for 30 min at 4° C. the membranes were reconstituted in the original volume of standard buffer and incubated for 30 min at 37° C. (to release bound endogenous ligands). Subsequent centrifugation and resuspension of the pellet in the initial volume of fresh standard buffer yielded the final membrane suspension. Aliquots (2 ml) of the membrane preparations were incubated for 1-2 h at 25° C. with 1 ml standard buffer containing the peptide to be tested and one of the following radioligands at the final concentration indicated: [^3 H]DAMGO, μ-selective, 0.7 nM; [^3 H]DSLET, μ-selective, 1.0 nM; and [^3 H]U69,563, κ-selective, 0.5 nM. The incubation was terminated by filtration through Whatman GF/B filters under vacuum at 4° C. Following two washings with 5 ml portions of ice-cold standard buffer the filters were transferred to scintillation vials and treated with 1 ml Protosol (New England Nuclear) for 30 min prior to addition of 0.5 ml acetic acid and 10 ml Aquasol (New England Nuclear). After shaking for 30 min the vials were counted at an efficiency of 40-45%. All experiments were performed in duplicate and repeated at least three times. Specific binding of each of the three radioligands was defined by performing incubations in the presence of cold DAMGO, DSLET and U69,563, respectively, at a concentration of 1 micromolar. Values of half-maximal inhibition (IC50) of specific binding were obtained graphically from semilogarithmic plots. From the measured IC50-values, binding inhibition constants (Ki) were calculated based on Cheng and Prusoff's equation (Biochem. Pharmacol. 22, 3099-3102 (1973)). Ratios of the Ki -values determined in the μ-, δ- and κ-representative binding assays are a measure of the receptor selectivity of the compound under investigation (e.g. Ki^μ /Ki^μ indicates the selectivity for δ-receptors versus μ-receptors).

[2] = system: guinea pig ileum (GPI); assay: Guinea pig ileum (GPI) bioassay: inhibition of electrically evoked contractions; type: cell-based; conditions: normalized with [Leu5]enkephalin standard, effect primarily μ-mediated
Procedure: (§3) Bioassays based on inhibition of electrically evoked contractions of the mouse vas deferens (MVD) and of the guinea pig ileum (GPI) were performed. In the GPI assay the opioid effect is primarily mediated by μ opioid receptors, whereas in the MVD assay the inhibition of the contractions is mostly due to interaction with δ opioid receptors.
(§4) The GPI and MVD bioassays were carried out as reported in P. W. Schiller et al., Biochem. Biophys. Res. Commun. 85, 1332-1338 (1978) and J. DiMaio et al., J. Med. Chem. 25, 1432-1438 (1982). A log-dose response curve was determined with [Leu^5 ]enkephalin as standard for each ileum and vas preparation, and IC50 values of the compounds being tested were normalized according to A. A. Waterfield et al., Eur. J. Pharmacol. 58, 11-18 (1979).

[3] = system: mouse vas deferens (MVD); assay: Mouse vas deferens (MVD) bioassay: inhibition of electrically evoked contractions; type: cell-based; conditions: for IC50 / MVD IC50: inhibition of electrically evoked contractions, normalized with [Leu5]enkephalin standard, effect mostly δ-mediated; for GPI/MVD IC50 ratio: ratio of GPI IC50 to MVD IC50; for δ opioid agonist character (full / partial): conclusion from MVD and GPI assays
Procedure: as §3, §4

[4] = target: T2, δ opioid receptor (Rattus norvegicus, UniProt P33533); assay: δ opioid receptor binding assay, displacement of [3H]DSLET from rat brain membranes; conditions: for Ki: rat brain membranes, [3H]DSLET 1.0 nM, Cheng-Prusoff; for Ki^μ/Ki^δ: δ versus μ receptor selectivity
T2 construct: Male Sprague-Dawley rats (300-350 g) from the Canadian Breeding Laboratories were decapitated and after removal of the cerebellum the brains were homogenized; from tissue; host or cells: rat brain (without cerebellum) membranes, male Sprague-Dawley
Procedure: as §1
as §2, with “[…];” for “[^3 H]DSLET, μ-selective, 1.0 nM;”

T1 sequence (P33535 whole entry): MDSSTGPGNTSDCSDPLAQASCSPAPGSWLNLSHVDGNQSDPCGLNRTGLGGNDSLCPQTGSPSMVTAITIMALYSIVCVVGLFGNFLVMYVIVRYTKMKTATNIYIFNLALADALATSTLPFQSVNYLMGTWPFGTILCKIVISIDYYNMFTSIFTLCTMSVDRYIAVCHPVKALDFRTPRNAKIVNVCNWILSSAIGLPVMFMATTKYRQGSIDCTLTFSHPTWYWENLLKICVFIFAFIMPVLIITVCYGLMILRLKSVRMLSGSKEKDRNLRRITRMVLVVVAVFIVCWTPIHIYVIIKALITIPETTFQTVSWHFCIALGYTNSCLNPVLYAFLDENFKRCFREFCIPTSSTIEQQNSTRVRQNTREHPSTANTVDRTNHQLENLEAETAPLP
T2 sequence (P33533 whole entry): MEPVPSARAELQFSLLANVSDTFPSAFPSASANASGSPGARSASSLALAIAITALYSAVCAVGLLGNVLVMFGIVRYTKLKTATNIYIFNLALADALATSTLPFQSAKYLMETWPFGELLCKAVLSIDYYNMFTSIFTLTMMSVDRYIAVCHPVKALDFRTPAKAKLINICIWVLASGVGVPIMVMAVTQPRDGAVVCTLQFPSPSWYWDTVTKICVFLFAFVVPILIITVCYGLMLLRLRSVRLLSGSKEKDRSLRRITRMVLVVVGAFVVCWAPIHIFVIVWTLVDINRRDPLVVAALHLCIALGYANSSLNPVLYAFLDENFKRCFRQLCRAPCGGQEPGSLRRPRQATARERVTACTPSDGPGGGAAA

SMILES	Ki [1] [nM]	IC50 [2] [nM]	IC50 [3] [nM]	GPI/MVD IC50 ratio [3]	Ki [4] [nM]	Ki^μ/Ki^δ [4]	GPI IC50 [2]	δ opioid agonist character (full / partial) [3]	MVD IC50 [3]
N[C@@H](Cc1ccc(O)cc1)C(=O)N1Cc2ccccc2C[C@H]1C(=O)NCC(CO)c1ccccc1 (single isomer, unassigned) [Example 27]	70.3 ± 2.3	526 ± 51	13.6 ± 2.2	38.7	1.26 ± 0.11	55.8	–	–	–
N[C@@H](Cc1ccc(O)cc1)C(=O)N1Cc2ccccc2C[C@H]1C(=O)NCC(c1ccc(Cl)cc1)c1ccc(Cl)cc1 [Example 26]	1560 ± 60	> 10000	397 ± 33	> 25.2	2.82 ± 0.07	553	–	–	–
N[C@@H](Cc1ccc(O)cc1)C(=O)N1Cc2ccccc2C[C@H]1C(=O)NCCc1ccccc1[N+](=O)[O-] [Example 29]	355 ± 13	1850 ± 540	29.1 ± 10.6	63.6	7.7 ± 0.45	46.1	–	–	–
CCOC(=O)C(CNC(=O)[C@@H]1Cc2ccccc2CN1C(=O)[C@@H](N)Cc1ccc(O)cc1)c1ccccc1 (single isomer, unassigned) [Example 16]	153 ± 5	> 10000	8.64 ± 1.31	>1160	3.03 ± 0.66	50.5	–	–	–
Cc1ccccc1CCNC(=O)[C@@H]1Cc2ccccc2CN1C(=O)[C@@H](N)Cc1ccc(O)cc1 [Example 6]	38.7 ± 8.9	759 ± 152	10.1 ± 1.2	75.1	1.75 ± 0.1	22.1	–	–	–
NC(Cc1ccc(O)cc1)C(=O)N1Cc2ccccc2CC1C(=O)NC1CC1c1ccccc1 (single isomer, unassigned) [Example 22]	11.5 ± 1.1	518 ± 147	7.31 ± 2.3	70.9	1.36 ± 0.15	8.46	–	–	–
N[C@@H](Cc1ccc(O)cc1)C(=O)N1Cc2ccccc2C[C@H]1C(=O)N[C@H]1CCc2ccccc2C1 [Example 19, H-Tyr-Tic-2-S-At (At = aminotetralin)]	55.8 ± 6.3	1710 ± 230	38.1	44.9	4.55	12.3	–	–	–
N[C@@H](Cc1ccc(O)cc1)C(=O)N1Cc2ccccc2C[C@H]1C(=O)NCCc1ccccc1-c1ccccc1 [Example 7]	73.5 ± 7.1	> 10000	418 ± 55	> 23.9	4.76 ± 1.7	15.4	–	–	–
N[C@@H](Cc1ccc(O)cc1)C(=O)N1Cc2ccccc2C[C@H]1C(=O)N[C@@H]1CCc2ccccc2C1 [Example 20, H-Tyr-Tic-2-R-At (At = aminotetralin)]	26.3 ± 2.3	–	36.3 ± 3.58	–	1.72 ± 0.17	15.3	partial	–	–
N[C@@H](Cc1ccc(O)cc1)C(=O)N1Cc2ccccc2C[C@H]1C(=O)NCC(c1ccc([N+](=O)[O-])cc1)c1ccc([N+](=O)[O-])cc1 [Example 24]	635 ± 109	5200 ± 1100	8.91 ± 1.53	584	7.17 ± 0.24	88.6	–	–	–
CCOC(=O)C(CNC(=O)[C@@H]1Cc2ccccc2CN1C(=O)[C@@H](N)Cc1ccc(O)cc1C)c1ccccc1 (single isomer, unassigned) [Example 30]	164 ± 11	826 ± 183	1.62 ± 0.12	510	1.63 ± 0.27	101	–	–	–
CCOC(=O)C(CNC(=O)[C@@H]1Cc2ccccc2CN1C(=O)[C@@H](N)Cc1ccc(O)cc1C)c1ccccc1 (single isomer, unassigned) [Example 31]	79.7 ± 2.3	869 ± 209	2.24 ± 0.33	388	1.22 ± 0.04	65.3	–	–	–
NC(=O)C(CNC(=O)[C@@H]1Cc2ccccc2CN1C(=O)[C@@H](N)Cc1ccc(O)cc1)c1ccccc1 (single isomer, unassigned) [Example 18]	191 ± 19	> 10000	–	–	22.8 ± 2.5	8.38	–	partial δ agonists	partial agonist
NC(Cc1ccc(O)cc1)C(=O)N1Cc2ccccc2CC1C(=O)NC1CC1c1ccccc1 (single isomer, unassigned) [Example 21]	38 ± 11.2	1600 ± 500	–	–	4.13 ± 0.27	9.20	–	partial δ agonists	partial agonist
NC(=O)C(CNC(=O)[C@@H]1Cc2ccccc2CN1C(=O)[C@@H](N)Cc1ccc(O)cc1)c1ccccc1 (single isomer, unassigned) [Example 17]	73.7 ± 0.6	2140 ± 470	34 ± 2.9	62.9	21.5 ± 4.2	3.43	–	–	–
NC(Cc1ccc(O)cc1)C(=O)N1Cc2ccccc2CC1C(=O)NCC(c1ccccc1)c1ccccc1 (stereo not drawn) [Example 1, H-Tyr-Tic-NH--CH2 --CH--(Ph)2]	28.8 ± 4.2	3630 ± 470	3.77 ± 1.05	963	0.981 ± 0.038	29.4	–	–	–
CCOC(=O)C(CNC(=O)[C@@H]1Cc2ccccc2CN1C(=O)[C@@H](N)Cc1ccc(O)cc1)c1ccccc1 (single isomer, unassigned) [Example 15]	886 ± 172	> 10000	1.28 ± 0.18	>7810	0.569 ± 0.08	1560	–	–	–
